# Measured values as given in ChEMBL document CHEMBL6177932 (J Med Chem, 2024).
# Activity calls are given as the source filed them. The rule behind the calls is not given here.
# Assays:
# B16-F10 [1] = test: Antitumor activity against mouse B16-F10 cells implanted in C57BL/6 mouse assessed as reduction in tumor burden at 0.25 ug/kg, ip administered every second day for 18 days in presence of SAHA; format: functional, organism-based; settings: dose 0.25 µg/kg, time 18.0 day
# [2] = Toxicity in mouse B16-F10 cells implanted C57BL/6 mouse assessed as effect on body weight at 0.25 ug/kg, ip administered daily for 28 days in presence of SAHA; format: organism-based; settings: in vivo, 0.00025 mg/kg, dose 0.25 µg/kg, time 28 day
# Mus musculus [3] = test: Immunomodulatory activity in mouse 4T1 cells implanted BALB/c mouse assessed as reduction in Ccl5 gene expression at 0.25 ug/kg, ip administered daily for 18 days by RT-qPCR analysis; format: functional, organism-based; settings: dose 0.25 µg/kg, time 18.0 day
# [4] = Toxicity in 4T1 cells implanted BALB/c mouse assessed as stress at 0.25 ug/kg, ip administered daily for 18 days; format: organism-based; settings: in vivo, 0.00025 mg/kg, 432 h, dose 0.25 µg/kg, time 18 day
# Mus musculus [5] = test: Immunomodulatory activity in mouse 4T1 cells implanted BALB/c mouse assessed as reduction in total macrophage infiltration into tumors at 0.25 ug/kg, ip administered daily for 18 days by F4/80 staining based immunofluorescence microscopy; format: functional, organism-based; settings: dose 0.25 µg/kg, time 18.0 day
# Mus musculus [6] = test: Immunomodulatory activity in mouse 4T1 cells implanted BALB/c mouse assessed as reduction in Ccl20 gene expression at 0.25 ug/kg, ip administered daily for 18 days by RT-qPCR analysis; format: functional, organism-based; settings: dose 0.25 µg/kg, time 18.0 day
# [7] = Toxicity in 4T1 cells implanted BALB/c mouse assessed as stress at 0.25 ug/kg, ip administered daily for 18 days in presence of SAHA; format: organism-based; settings: in vivo, 0.00025 mg/kg, 432 h, dose 0.25 µg/kg, time 18 day
# Mus musculus [8] = test: Immunomodulatory activity in mouse 4T1 cells implanted BALB/c mouse assessed as reduction in Ccl2 gene expression at 0.25 ug/kg, ip administered daily for 18 days by RT-qPCR analysis; format: functional, organism-based; settings: dose 0.25 µg/kg, time 18.0 day
# 4T1 [9] = test: Cytotoxicity against mouse 4T1 cells assessed as reduction in cell viability at 100 nM measured after 24 hrs in presence of SAHA by RealTime-glo cell viability assay; format: functional, cell-based
# [10] = Toxicity in 4T1 cells implanted BALB/c mouse assessed as body weight loss at 0.25 ug/kg, ip administered daily for 18 days; format: organism-based; settings: in vivo, 0.00025 mg/kg, 432 h, dose 0.25 µg/kg, time 18 day
# MDA-MB-231 [11] = test: Cytotoxicity against human MDA-MB-231 cells assessed as reduction in cell viability at 100 nM measured after 24 hrs by RealTime-glo cell viability assay; format: functional, cell-based
# [12] = Toxicity in mouse B16-F10 cells implanted C57BL/6 mouse at 0.25 ug/kg, ip administered daily for 28 days; format: organism-based; settings: in vivo, 0.00025 mg/kg, dose 0.25 µg/kg, time 28 day
# [13] = Toxicity in 4T1 cells implanted BALB/c mouse assessed as body weight loss at 0.25 ug/kg, ip administered daily for 18 days in presence of SAHA; format: organism-based; settings: in vivo, 0.00025 mg/kg, 432 h, dose 0.25 µg/kg, time 18 day
# 4T1 [14] = test: Antitumor activity against mouse 4T1 cells implanted in BALB/c mouse assessed as reduction in tumor burden at 0.25 ug/kg, ip administered daily for 18 days in presence of SAHA relative to control; format: functional; parameters: scale not given: the % may be the effect or the level left; settings: dose 0.25 µg/kg, time 18 day
# 4T1 [15] = test: Cytotoxicity against mouse 4T1 cells assessed as reduction in cell viability at 100 nM measured after 24 hrs by RealTime-glo cell viability assay; format: functional, cell-based
# MDA-MB-231 [16] = test: Cytotoxicity against human MDA-MB-231 cells assessed as reduction in cell viability at 100 nM measured after 24 hrs in presence of SAHA by RealTime-glo cell viability assay; format: functional, cell-based
# [17] = Toxicity in mouse B16-F10 cells implanted C57BL/6 mouse at 0.25 ug/kg, ip administered daily for 28 days in presence of SAHA; format: organism-based; settings: in vivo, 0.00025 mg/kg, dose 0.25 µg/kg, time 28 day
# [18] = Toxicity in mouse B16-F10 cells implanted C57BL/6 mouse assessed as effect on body weight at 0.25 ug/kg, ip administered daily for 28 days; format: organism-based; settings: in vivo, 0.00025 mg/kg, dose 0.25 µg/kg, time 28 day
# B16-F10 [19] = test: Antitumor activity against mouse B16-F10 cells implanted in C57BL/6 mouse assessed as reduction in tumor burden at 0.25 ug/kg, ip administered every second day for 18 days; format: functional, organism-based; settings: dose 0.25 µg/kg, time 18.0 day
# Mus musculus [20] = test: Immunomodulatory activity in mouse 4T1 cells implanted BALB/c mouse assessed as induction of Il1a gene expression at 0.25 ug/kg, ip administered daily for 18 days by RT-qPCR analysis; format: functional, organism-based; settings: dose 0.25 µg/kg, time 18.0 day
# Mus musculus [21] = test: Immunomodulatory activity in mouse 4T1 cells implanted BALB/c mouse assessed as reduction in Cxcl10 gene expression at 0.25 ug/kg, ip administered daily for 18 days by RT-qPCR analysis; format: functional, organism-based; settings: dose 0.25 µg/kg, time 18.0 day
# [22] = Toxicity in 4T1 cells implanted BALB/c mouse assessed as body weight loss at 80 mg/kg, ip administered daily for 18 days; format: organism-based; settings: in vivo, 432 h, time 18 day
# [23] = Toxicity in 4T1 cells implanted BALB/c mouse assessed as stress at 80 mg/kg, ip administered daily for 18 days in presence of 1,25D; format: organism-based; settings: in vivo, 432 h, time 18 day
# [24] = Toxicity in mouse B16-F10 cells implanted C57BL/6 mouse at 80 mg/kg, ip administered daily for 28 days in presence of 1,25D; format: organism-based; settings: in vivo, time 28 day
# [25] = target: T1, Protein deacetylase HDAC6 (Mus musculus) (UniProt Q9Z2V5); test: Inhibition of HDAC6 in mouse B16-F10 cells assessed as induction of tubulin acetylation at 100 nM measured after 6 hrs by Western blot analysis; format: cell-based
# T1 sequence (whole entry): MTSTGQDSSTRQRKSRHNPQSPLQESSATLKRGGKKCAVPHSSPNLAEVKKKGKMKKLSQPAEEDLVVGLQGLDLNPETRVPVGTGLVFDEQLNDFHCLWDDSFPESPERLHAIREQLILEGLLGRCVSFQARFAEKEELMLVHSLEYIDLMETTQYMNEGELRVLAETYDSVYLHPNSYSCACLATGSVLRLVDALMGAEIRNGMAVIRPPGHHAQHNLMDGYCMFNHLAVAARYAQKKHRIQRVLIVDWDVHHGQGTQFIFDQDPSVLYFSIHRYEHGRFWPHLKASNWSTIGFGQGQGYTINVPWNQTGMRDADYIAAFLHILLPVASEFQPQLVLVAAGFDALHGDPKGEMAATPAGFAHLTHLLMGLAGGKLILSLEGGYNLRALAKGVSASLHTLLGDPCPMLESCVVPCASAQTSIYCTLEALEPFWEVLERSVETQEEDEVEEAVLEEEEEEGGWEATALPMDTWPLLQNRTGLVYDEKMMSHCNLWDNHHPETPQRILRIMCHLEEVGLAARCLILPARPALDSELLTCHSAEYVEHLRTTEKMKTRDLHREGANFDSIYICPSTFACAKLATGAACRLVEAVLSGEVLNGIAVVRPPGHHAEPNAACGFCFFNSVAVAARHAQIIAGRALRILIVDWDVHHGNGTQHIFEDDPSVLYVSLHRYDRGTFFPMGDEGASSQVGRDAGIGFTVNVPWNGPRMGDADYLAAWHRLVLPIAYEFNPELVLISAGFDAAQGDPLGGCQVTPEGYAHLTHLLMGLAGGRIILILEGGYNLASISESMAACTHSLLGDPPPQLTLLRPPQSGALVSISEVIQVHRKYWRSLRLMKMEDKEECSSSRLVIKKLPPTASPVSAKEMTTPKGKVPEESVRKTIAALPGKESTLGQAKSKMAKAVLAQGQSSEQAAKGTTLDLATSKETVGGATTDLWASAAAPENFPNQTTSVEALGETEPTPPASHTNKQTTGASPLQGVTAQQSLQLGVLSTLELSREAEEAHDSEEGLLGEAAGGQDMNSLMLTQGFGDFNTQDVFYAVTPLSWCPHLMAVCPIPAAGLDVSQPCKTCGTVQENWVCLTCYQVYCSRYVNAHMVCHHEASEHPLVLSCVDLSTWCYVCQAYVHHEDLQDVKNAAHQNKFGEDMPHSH
# Mus musculus [26] = test: Immunomodulatory activity in mouse 4T1 cells implanted BALB/c mouse assessed as reduction in total macrophage infiltration into tumors at 80 mg/kg, ip administered daily for 18 days by F4/80 staining based immunofluorescence microscopy; format: functional, organism-based; settings: time 18.0 day
# B16-F10 [27] = test: Antitumor activity against mouse B16-F10 cells implanted in C57BL/6 mouse assessed as reduction in tumor burden at 80 mg/kg, ip administered every second day for 18 days; format: functional, organism-based; settings: time 18.0 day
# [28] = Toxicity in 4T1 cells implanted BALB/c mouse assessed as stress at 80 mg/kg, ip administered daily for 18 days; format: organism-based; settings: in vivo, 432 h, time 18 day
# MDA-MB-231 [29] = test: Cytotoxicity against human MDA-MB-231 cells assessed as reduction in cell viability at 100 nM measured after 24 hrs in presence of 1,25D by RealTime-glo cell viability assay; format: functional, cell-based
# [30] = target: T1, Protein deacetylase HDAC6 (Mus musculus); test: Inhibition of HDAC6 in mouse 4T1 cells assessed as induction of tubulin acetylation at 100 nM measured after 6 hrs by Western blot analysis; format: cell-based
# [31] = Toxicity in mouse B16-F10 cells implanted C57BL/6 mouse at 80 mg/kg, ip administered daily for 28 days; format: organism-based; settings: in vivo, time 28 day
# [32] = Toxicity in 4T1 cells implanted BALB/c mouse assessed as body weight loss at 80 mg/kg, ip administered daily for 18 days in presence of 1,25D; format: organism-based; settings: in vivo, 432 h, time 18 day
# 4T1 [33] = test: Cytotoxicity against mouse 4T1 cells assessed as reduction in cell viability at 100 nM measured after 24 hrs in presence of 1,25D by RealTime-glo cell viability assay; format: functional, cell-based
# 4T1 [34] = test: Antitumor activity against mouse 4T1 cells implanted in BALB/c mouse assessed as reduction in tumor burden at 80 mg/kg, ip administered daily for 18 days in presence of 1,25D relative to control; format: functional; parameters: scale not given: the % may be the effect or the level left; settings: time 18 day
# [35] = Toxicity in mouse B16-F10 cells implanted C57BL/6 mouse assessed as effect on body weight at 80 mg/kg, ip administered daily for 28 days; format: organism-based; settings: in vivo, time 28 day
# [36] = target: T2, Vitamin D3 receptor (Mus musculus) (UniProt P48281); test: Agonist activity at VDR in mouse B16-F10 cells assessed as induction of Cyp24a1 gene at 100 nM measured after 24 hrs in presence of 1,25D by RT-qPCR analysis; format: cell-based; settings: filed as agonist
# T2 sequence (whole entry): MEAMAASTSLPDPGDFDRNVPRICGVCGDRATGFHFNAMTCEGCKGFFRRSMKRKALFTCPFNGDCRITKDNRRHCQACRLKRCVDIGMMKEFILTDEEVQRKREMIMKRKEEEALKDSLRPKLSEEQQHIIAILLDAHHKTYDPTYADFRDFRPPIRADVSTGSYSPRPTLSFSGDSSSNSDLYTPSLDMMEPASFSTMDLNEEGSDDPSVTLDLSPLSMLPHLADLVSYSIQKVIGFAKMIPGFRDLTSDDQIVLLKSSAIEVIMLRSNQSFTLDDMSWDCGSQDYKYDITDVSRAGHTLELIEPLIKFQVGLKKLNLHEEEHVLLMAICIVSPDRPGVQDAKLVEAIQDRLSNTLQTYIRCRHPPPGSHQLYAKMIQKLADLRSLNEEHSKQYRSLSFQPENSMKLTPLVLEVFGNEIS
# [37] = Toxicity in mouse B16-F10 cells implanted C57BL/6 mouse assessed as effect on body weight at 80 mg/kg, ip administered daily for 28 days in presence of 1,25D; format: organism-based; settings: in vivo, time 28 day
# B16-F10 [38] = test: Antitumor activity against mouse B16-F10 cells implanted in C57BL/6 mouse assessed as reduction in tumor burden at 80 mg/kg, ip administered every second day for 18 days in presence of 1,25D; format: functional, organism-based; settings: time 18.0 day
smiles,measurement,setting,value
C=C1/C(=C\C=C2/CCC[C@]3(C)[C@@H]([C@H](C)CCCC(C)(C)O)CC[C@@H]23)C[C@@H](O)C[C@@H]1O [CALCITRIOL],Activity,B16-F10 [1],Active
same,Activity,[2],Non-toxic
same,Activity,Mus musculus [3],Active
same,Activity,[4],Non-toxic
same,Activity,Mus musculus [5],Active; Significantly Reduced Macrophage Infiltration Into Tumor
same,Activity,Mus musculus [6],Active
same,Activity,[7],Non-toxic
same,Activity,Mus musculus [8],Active
same,Activity,4T1 [9],Active
same,Activity,[10],Non-toxic
same,Activity,MDA-MB-231 [11],Active
same,Activity,[12],Non-toxic
same,Activity,[13],Non-toxic
same,Activity,4T1 [14],~20%
same,Activity,4T1 [15],Active
same,Activity,MDA-MB-231 [16],Active
same,Activity,[17],Non-toxic
same,Activity,[18],Non-toxic
same,Activity,B16-F10 [19],Active
same,Activity,Mus musculus [20],Active
same,Activity,Mus musculus [21],Active
O=C(CCCCCCC(=O)Nc1ccccc1)NO [VORINOSTAT],Activity,[22],Non-toxic
same,Activity,[23],Non-toxic
same,Activity,[24],Non-toxic
same,inhibition,[25],Active
same,Activity,Mus musculus [26],Active; No Significant Effect Observed
same,Activity,B16-F10 [27],Active
same,Activity,[28],Non-toxic
same,Activity,MDA-MB-231 [29],Active
same,inhibition,[30],Active
same,Activity,[31],Non-toxic
same,Activity,MDA-MB-231 [11],Active
same,Activity,[32],Non-toxic
same,Activity,4T1 [33],Active
same,Activity,4T1 [34],~20%
same,Activity,4T1 [15],Active
same,Activity,[35],Non-toxic
same,Activity,[36],Active
same,Activity,[37],Non-toxic
same,Activity,B16-F10 [38],Active
